Data from patent publication US7695751B2 (priority 2004, dated 2010).
Several values for one entry are separate records, joined by “and”; a condition that tells them apart may be missing. Equal values may be shown once.

Test system: Salmonella Typhimurium strain TA98
Type: cell-based

Aflatoxin B1 [AFB1 control]
MR: 13.75 and 12.35 | Number of mutant colonies/plate: 383 ± 65 colonies/plate | The number of mutant colonies/plate: 385 ± 97 colonies/plate
